From PubChem BioAssay (NCI)
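GI50 marks 50% less growth. At the TGI there is no net growth.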

How the values were obtained:
Assay in all cases: DTP human tumour cell line panel, 384-well format
786-0 renal = test system: 786-0 renal
A498 renal = test system: A498 renal
A549 NSCLC = test system: A549 NSCLC
ACHN renal = test system: ACHN renal
BT-549 breast = test system: BT-549 breast
CAKI-1 renal = test system: CAKI-1 renal
CCRF-CEM leukemia = test system: CCRF-CEM leukemia
COLO 205 colon = test system: COLO 205 colon
DU-145 prostate = test system: DU-145 prostate
EKVX NSCLC = test system: EKVX NSCLC
HCC-2998 colon = test system: HCC-2998 colon
HCT-116 colon = test system: HCT-116 colon
HCT-15 colon = test system: HCT-15 colon
HL-60(TB) leukemia = test system: HL-60(TB) leukemia
HOP-62 NSCLC = test system: HOP-62 NSCLC
HOP-92 NSCLC = test system: HOP-92 NSCLC
HS 578T breast = test system: HS 578T breast
HT29 colon = test system: HT29 colon
IGROV1 ovarian = test system: IGROV1 ovarian
KM12 colon = test system: KM12 colon
LOX IMVI melanoma = test system: LOX IMVI melanoma
M14 melanoma = test system: M14 melanoma
MALME-3M melanoma = test system: MALME-3M melanoma
MCF7 breast = test system: MCF7 breast
MDA-MB-231 breast = test system: MDA-MB-231 breast
MDA-MB-435 melanoma = test system: MDA-MB-435 melanoma
MDA-MB-468 breast = test system: MDA-MB-468 breast
MOLT-4 leukemia = test system: MOLT-4 leukemia
NCI-H226 lung = test system: NCI-H226 lung
NCI-H23 lung = test system: NCI-H23 lung
NCI-H322M lung = test system: NCI-H322M lung
NCI-H460 NSCLC = test system: NCI-H460 NSCLC
NCI-H522 lung = test system: NCI-H522 lung
NCI/ADR-RES ovarian = test system: NCI/ADR-RES ovarian
OVCAR-3 ovarian = test system: OVCAR-3 ovarian
OVCAR-4 ovarian = test system: OVCAR-4 ovarian
OVCAR-5 ovarian = test system: OVCAR-5 ovarian
OVCAR-8 ovarian = test system: OVCAR-8 ovarian
PC-3 prostate = test system: PC-3 prostate
RPMI-8226 leukemia = test system: RPMI-8226 leukemia
RXF 393 renal = test system: RXF 393 renal
SF-268 CNS = test system: SF-268 CNS
SF-295 CNS = test system: SF-295 CNS
SF-539 CNS = test system: SF-539 CNS
SK-MEL-28 melanoma = test system: SK-MEL-28 melanoma
SK-MEL-5 melanoma = test system: SK-MEL-5 melanoma
SK-OV-3 ovarian = test system: SK-OV-3 ovarian
SN12C renal = test system: SN12C renal
SNB-19 CNS = test system: SNB-19 CNS
SNB-75 CNS = test system: SNB-75 CNS
SR leukemia = test system: SR leukemia
SW-620 colon = test system: SW-620 colon
T-47D breast = test system: T-47D breast
TK-10 renal = test system: TK-10 renal
U251 glioblastoma = test system: U251 glioblastoma
UACC-257 melanoma = test system: UACC-257 melanoma
UACC-62 melanoma = test system: UACC-62 melanoma
UO-31 renal = test system: UO-31 renal

`Nc1cccc2c1C(=O)N(C1CCC(=O)NC1=O)C2=O` (stereo not given) was tested, and the GI50 (786-0 renal) was greater than 100 µM, the TGI (786-0 renal) was greater than 100 µM and the GI50 (A498 renal) was greater than 100 µM. It also gave a TGI (A498 renal) greater than 100 µM, a GI50 (A549 NSCLC) greater than 100 µM and a TGI (A549 NSCLC) greater than 100 µM. The GI50 (ACHN renal) was greater than 100 µM, the TGI (ACHN renal) was greater than 100 µM and the GI50 (BT-549 breast) was greater than 100 µM. The TGI (BT-549 breast) was greater than 100 µM, the GI50 (CAKI-1 renal) was greater than 100 µM and the TGI (CAKI-1 renal) was greater than 100 µM. It also gave a GI50 (CCRF-CEM leukemia) greater than 100 µM, a TGI (CCRF-CEM leukemia) greater than 100 µM and a GI50 (COLO 205 colon) greater than 100 µM. For the same compound, the TGI (COLO 205 colon) was greater than 100 µM, the GI50 (DU-145 prostate) was greater than 100 µM and the TGI (DU-145 prostate) was greater than 100 µM. For the same compound, the GI50 (EKVX NSCLC) was greater than 100 µM, the TGI (EKVX NSCLC) was greater than 100 µM and the GI50 (HCC-2998 colon) was greater than 100 µM. For the same compound, the TGI (HCC-2998 colon) was greater than 100 µM, the GI50 (HCT-116 colon) was greater than 100 µM and the TGI (HCT-116 colon) was greater than 100 µM. For the same compound, the GI50 (HCT-15 colon) was greater than 100 µM, the TGI (HCT-15 colon) was greater than 100 µM and the GI50 (HL-60(TB) leukemia) was greater than 100 µM. It also gave a TGI (HL-60(TB) leukemia) greater than 100 µM, a GI50 (HOP-62 NSCLC) greater than 100 µM and a TGI (HOP-62 NSCLC) greater than 100 µM. It also gave a GI50 (HOP-92 NSCLC) greater than 100 µM, a TGI (HOP-92 NSCLC) greater than 100 µM and a GI50 (HS 578T breast) greater than 100 µM. It also gave a TGI (HS 578T breast) greater than 100 µM, a GI50 (HT29 colon) greater than 100 µM and a TGI (HT29 colon) greater than 100 µM. The GI50 (IGROV1 ovarian) was greater than 100 µM, the TGI (IGROV1 ovarian) was greater than 100 µM and the GI50 (KM12 colon) was greater than 100 µM. It also gave a TGI (KM12 colon) greater than 100 µM, a TGI (LOX IMVI melanoma) greater than 100 µM and a GI50 (M14 melanoma) greater than 100 µM. It also gave a TGI (M14 melanoma) greater than 100 µM, a GI50 (MALME-3M melanoma) greater than 100 µM and a TGI (MALME-3M melanoma) greater than 100 µM. It also gave a GI50 (MCF7 breast) greater than 100 µM, a TGI (MCF7 breast) greater than 100 µM and a GI50 (MDA-MB-231 breast) greater than 100 µM. The TGI (MDA-MB-231 breast) was greater than 100 µM, the GI50 (MDA-MB-435 melanoma) was greater than 100 µM and the TGI (MDA-MB-435 melanoma) was greater than 100 µM. It also gave a GI50 (MDA-MB-468 breast) greater than 100 µM, a TGI (MDA-MB-468 breast) greater than 100 µM and a GI50 (MOLT-4 leukemia) greater than 100 µM. The TGI (MOLT-4 leukemia) was greater than 100 µM, the GI50 (NCI-H226 lung) was greater than 100 µM and the TGI (NCI-H226 lung) was greater than 100 µM. The GI50 (NCI-H23 lung) was greater than 100 µM, the TGI (NCI-H23 lung) was greater than 100 µM and the GI50 (NCI-H322M lung) was greater than 100 µM. The TGI (NCI-H322M lung) was greater than 100 µM, the GI50 (NCI-H460 NSCLC) was greater than 100 µM and the TGI (NCI-H460 NSCLC) was greater than 100 µM. For the same compound, the GI50 (NCI-H522 lung) was greater than 100 µM, the TGI (NCI-H522 lung) was greater than 100 µM and the GI50 (NCI/ADR-RES ovarian) was greater than 100 µM. The TGI (NCI/ADR-RES ovarian) was greater than 100 µM, the GI50 (OVCAR-3 ovarian) was greater than 100 µM and the TGI (OVCAR-3 ovarian) was greater than 100 µM. It also gave a GI50 (OVCAR-4 ovarian) greater than 100 µM, a TGI (OVCAR-4 ovarian) greater than 100 µM and a GI50 (OVCAR-5 ovarian) greater than 100 µM. It also gave a TGI (OVCAR-5 ovarian) greater than 100 µM, a GI50 (OVCAR-8 ovarian) greater than 100 µM and a TGI (OVCAR-8 ovarian) greater than 100 µM. The GI50 (PC-3 prostate) was greater than 100 µM, the TGI (PC-3 prostate) was greater than 100 µM and the GI50 (RPMI-8226 leukemia) was 22.9 µM. It also gave a TGI (RPMI-8226 leukemia) greater than 100 µM, a GI50 (RXF 393 renal) greater than 100 µM and a TGI (RXF 393 renal) greater than 100 µM. For the same compound, the GI50 (SF-268 CNS) was greater than 100 µM, the TGI (SF-268 CNS) was greater than 100 µM and the GI50 (SF-295 CNS) was greater than 100 µM. It also gave a TGI (SF-295 CNS) greater than 100 µM, a GI50 (SF-539 CNS) greater than 100 µM and a TGI (SF-539 CNS) greater than 100 µM. It also gave a GI50 (SK-MEL-28 melanoma) greater than 100 µM, a TGI (SK-MEL-28 melanoma) greater than 100 µM and a GI50 (SK-MEL-5 melanoma) greater than 100 µM. For the same compound, the TGI (SK-MEL-5 melanoma) was greater than 100 µM, the GI50 (SK-OV-3 ovarian) was greater than 100 µM and the TGI (SK-OV-3 ovarian) was greater than 100 µM. For the same compound, the GI50 (SN12C renal) was greater than 100 µM, the TGI (SN12C renal) was greater than 100 µM and the GI50 (SNB-19 CNS) was greater than 100 µM. The TGI (SNB-19 CNS) was greater than 100 µM, the GI50 (SNB-75 CNS) was greater than 100 µM and the TGI (SNB-75 CNS) was greater than 100 µM. It also gave a GI50 (SR leukemia) greater than 100 µM, a TGI (SR leukemia) greater than 100 µM and a GI50 (SW-620 colon) greater than 100 µM. For the same compound, the TGI (SW-620 colon) was greater than 100 µM, the GI50 (T-47D breast) was greater than 100 µM and the TGI (T-47D breast) was greater than 100 µM. It also gave a GI50 (TK-10 renal) greater than 100 µM, a TGI (TK-10 renal) greater than 100 µM and a GI50 (U251 glioblastoma) greater than 100 µM. The TGI (U251 glioblastoma) was greater than 100 µM, the GI50 (UACC-257 melanoma) was greater than 100 µM and the TGI (UACC-257 melanoma) was greater than 100 µM. The GI50 (UACC-62 melanoma) was greater than 100 µM, the TGI (UACC-62 melanoma) was greater than 100 µM and the GI50 (UO-31 renal) was greater than 100 µM. For the same compound, the TGI (UO-31 renal) was greater than 100 µM.
